Activity calls are given as the source filed them. The calls are words filed in the database; no cut-off is given here.
What follows are compounds tested against Prostaglandin G/H synthase 1 (Homo sapiens, UniProt P23219) (assay: Inhibition of COX1 in human OVCAR3 cells using [14C]arachidonic acid as substrate preincubated for 30 mins before substrate addition by radioactivity scanning technique). Conditions: not given.
Assay type: cell-based, OVCAR-3

Prostaglandin G/H synthase 1, sequence (P23219 whole entry): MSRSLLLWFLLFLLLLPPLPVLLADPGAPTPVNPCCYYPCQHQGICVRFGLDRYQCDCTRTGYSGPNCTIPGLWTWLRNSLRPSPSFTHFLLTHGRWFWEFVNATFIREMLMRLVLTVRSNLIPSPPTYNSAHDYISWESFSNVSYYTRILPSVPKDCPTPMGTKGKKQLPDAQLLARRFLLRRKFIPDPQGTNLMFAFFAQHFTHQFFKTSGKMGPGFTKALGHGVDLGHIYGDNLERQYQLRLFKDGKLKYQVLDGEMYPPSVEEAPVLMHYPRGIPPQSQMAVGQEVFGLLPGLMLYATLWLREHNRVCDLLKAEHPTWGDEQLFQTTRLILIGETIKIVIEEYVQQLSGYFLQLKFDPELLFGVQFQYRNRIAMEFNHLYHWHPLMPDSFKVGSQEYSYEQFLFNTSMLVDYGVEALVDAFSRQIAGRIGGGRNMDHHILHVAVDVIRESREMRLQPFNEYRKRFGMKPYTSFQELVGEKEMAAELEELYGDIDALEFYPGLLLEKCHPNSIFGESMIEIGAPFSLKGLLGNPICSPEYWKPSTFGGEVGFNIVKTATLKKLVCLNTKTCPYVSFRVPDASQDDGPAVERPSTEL

IC50 [nM]	Structure (SMILES)
580	Nc1onc(-c2ccc(Cl)o2)c1-c1ccccc1

These compounds were tested against T1, Prostaglandin G/H synthase 1 (Ovis aries) (UniProt P05979). Conditions: at 50 µM.
T1 sequence (whole entry): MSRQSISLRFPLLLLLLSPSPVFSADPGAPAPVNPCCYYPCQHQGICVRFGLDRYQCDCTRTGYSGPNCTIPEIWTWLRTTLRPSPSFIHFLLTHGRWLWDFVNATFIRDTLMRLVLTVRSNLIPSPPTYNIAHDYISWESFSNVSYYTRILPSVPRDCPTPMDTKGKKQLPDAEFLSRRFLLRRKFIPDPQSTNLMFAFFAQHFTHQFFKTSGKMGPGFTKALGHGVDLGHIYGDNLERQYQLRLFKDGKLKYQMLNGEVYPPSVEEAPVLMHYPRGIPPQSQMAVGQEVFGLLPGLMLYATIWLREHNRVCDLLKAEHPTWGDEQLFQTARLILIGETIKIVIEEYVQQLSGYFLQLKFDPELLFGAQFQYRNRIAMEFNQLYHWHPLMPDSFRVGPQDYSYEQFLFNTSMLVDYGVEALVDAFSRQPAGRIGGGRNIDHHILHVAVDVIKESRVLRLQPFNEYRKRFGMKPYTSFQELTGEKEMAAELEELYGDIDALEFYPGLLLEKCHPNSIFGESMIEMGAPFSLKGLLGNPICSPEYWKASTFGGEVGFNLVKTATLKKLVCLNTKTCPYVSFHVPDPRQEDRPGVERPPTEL
Description: Inhibition of ovine COX1 at 50 uM by peroxidase activity-based colorimetric assay

Structure (SMILES)	inhibition
COC(=O)Cc1onc(-c2ccc(Cl)o2)c1-c1ccccc1	inactive
Clc1ccc(-c2noc(CBr)c2-c2ccccc2)o1	35%
CCCc1onc(-c2ccc(Cl)o2)c1-c1ccccc1	17%
Nc1onc(-c2ccc(Cl)o2)c1-c1ccccc1	94%
Cc1onc(-c2ccc(Cl)o2)c1-c1ccc(N)cc1	78%
O=C(O)Cc1onc(-c2ccc(Cl)o2)c1-c1ccccc1	32%
COc1ccccc1-c1noc(C(F)(F)F)c1-c1ccccc1	39%
Cc1onc(-c2ccc(Cl)o2)c1-c1ccccc1	69%
CCc1onc(-c2ccc(Cl)o2)c1-c1ccccc1	55%

Results, then the compound that gave them:

inhibition	Structure (SMILES)
25%	CC(=O)N(C(C)=O)c1onc(-c2ccc(Cl)o2)c1-c1ccccc1
inactive	CN(C)c1onc(-c2ccc(Cl)o2)c1-c1ccccc1
inactive	Cc1onc(-c2ccc(Cl)o2)c1-c1ccc([N+](=O)[O-])cc1
12%	N#CCc1onc(-c2ccc(Cl)o2)c1-c1ccccc1
61%	COc1ccccc1-c1noc(C)c1-c1ccccc1
